Data on 2 molecules can be found in patent US7071207B2, “Preparation and use of 1,5,6,7-tetrahydropyrrolo[3,2-c]pyridine derivatives for treatment of obesity” (Bayer Pharmaceuticals Corporation, priority 2001, dated 2006).

Structures can show the parent of a compound that is named as a salt. Bounds are passed on as bounds.

The nature of series [1]: Measurement of brain exposure. Type of series: in vivo. To be noted: male, obese Zucker fa/fa, rat, brain homogenate, oral; 10 mg/kg p.o.; brains collected at 2 hours post-dosing; read-out: brain homogenate exposure level. The procedure: Measurement of Brain Exposure
Male obese Zucker fa/fa rats are administered compounds, typically at 10 mg/kg p.o., and then brains are collected at 2 hours post-dosing for determination of brain concentration. Brains are weighed and homogenized with 4 mL 10 mM ammonium acetate buffer (pH 3), and the brain tissue homogenate samples are extracted via protein precipitation with acetonitrile. Samples are vortexed, centrifuged, and analyzed by liquid chromatography utilizing mass spectrometer selective detection (LC/MS/MS) using the heated nebulizer interface. Samples are quantitated using weighted (1/x^2) linear internal standard calibration curve.

The next series concerns obese Zucker fa/fa rats. The series can be described thus: Chronic feeding assay (body weight, food and water consumption). Type of series: in vivo, rat. To be noted: once per day at 10 mg/kg p.o.; day 6 of treatment. The source says:
Evaluation of Compound's Efficacy on the Reduction of Body Weight and Food and Water Consumption in Obese Zucker fa/fa Rats
The purpose of this protocol is to determine the effect of chronic administration of an unknown compound on body weight and food and water consumption in obese Zucker fa/fa rats. Obese Zucker fa/fa rats are frequently used in the determination of compound efficacy in the reduction of body weight. This animal model has been successfully used in the identification and characterization of the efficacy profile of compounds that are or have been used in the management of body weight in obese humans (see, e.g., Al-Barazanji et al., Obes Res. 8:317–323, 2000; Assimacopoulos-Jeannet et al., Am. J. Physiol. 260(2 Pt 2):R278–283, 1991; Dryden et al., Horm. Metab. Res. 31:363–366, 1999; Edwards and Stevens, Pharmacol. Biochem. Behav. 47:865–872, 1994; Grinker et al., Pharmacol. Biochem. Behav. 12:265–275, 1980).
A typical study includes 60–80 male Zucker fa/fa (n=10/treatment group) with an average body weight of approximately 550 g. […]
Animals are orally gavaged (2 mL/kg) daily before the dark phase of the LD/cycle for a pre-determined number of days (typically 6–14 days) with their assigned dose/compound. At this time, body weight, food and water consumption are measured. On the final day, animals are euthanized by CO2 inhalation, and the body weight is measured.

On to `O[C@@H]1CCCC[C@H]1N1CCc2c(cc(-c3ccc(Cl)cc3)n2-c2ccccc2Cl)C1` (relative stereo) [entry 18, trans-2-[1-(2-chlorophenyl)-2-(4-chlorophenyl)-1,4,6,7-tetrahydro-5H-pyrrolo[3,2-c]pyridin-5-yl]cyclohexanol hydrochloride], for which, in series [1], the concentration at 2 h was greater than 500 nM.
As for `COc1ccc(-c2c(C)c3c(n2-c2ccccc2Cl)CCN(N2CCCCC2)C3=O)cc1.Cl` [entry 189, 1-(2-chlorophenyl)-2-(4-methoxyphenyl)-3-methyl-5-(1-piperidinyl)-1,5,6,7-tetrahydro-4H-pyrrolo[3,2-c]pyridin-4-one hydrochloride], in the series on obese Zucker fa/fa rats, the “increase in body weight from baseline” value is “no increase in body weight from baseline”.
